# Columns and labels:
# [1] = test system: lipid peroxide (LPO) in rat brain homogenate; experiment: Antioxidant activity assay by the method of Stocks (lipid peroxide in brain homogenate, TBA method); type: biochemical, male Wistar rats; conditions: LPO as MDA per mg protein, 37° C., 60 minutes
# Method: The antioxidant activity of the compound of the invention was assayed by the method of Stocks.
# This experiment was performed using male Wistar rats (about 10 weeks old). After perfusion for removal of blood from the brain, the brain tissue was removed and homogenized in 4 volumes of ice-cooled 0.1M phosphate-NaCl buffer (pH 7.4). The homogenate was centrifuged at 1000×g for 10 minutes and the supernatant was taken. The brain homogenate was diluted with 10 volumes of phosphate-NaCl buffer and a 500 μl portion of the dilution was incubated at 37° C. for 60 minutes. The reaction was quenched by pouring the incubate in ice-water and 490 μl of 0.1M phosphate-NaCl buffer was added. The amount of lipid peroxide (LPO) was determined by the TBA method. The amount of LPO was expressed in the amount of malondialdehyde (MDA) per mg protein. The amount of protein was determined by the method of Lowry.
# [2] = test system: formalin-induced mouse paw edema; experiment: Antiinflammatory activity assay, mouse paw edema test (formalin); type: in vivo, male ddy mice; conditions: 200 mg orally, 1 hour before 0.05 ml of 0.75% formalin into right hind paw
# Method: The antiinflammatory activity of the compound of the invention was assayed by the mouse paw edema test. The experiment was performed in groups of 6 male ddy mice weighting 20 g-25 g. The volume of the right hind paw of each mouse was measured with a plethysmograph and 200 mg of the compound of the invention was orally administered. After 1 hour, 0.05 ml of 0.75% formalin as a phlogistic agent was injected subcutaneously into the dorsum of the right hind paw and the foot volume was measured at timed intervals. The edema rate and the percent inhibition was calculated from the values found. [formula]
Structure (SMILES),% Inhibition ([1]; Dosage 1 × 10^-3 M) [%],% Inhibition ([1]; Dosage 1 × 10^-4 M) [%],% Inhibition ([2]; Hour 1) [%],% Inhibition ([2]; Hour 4) [%]
"COC(=O)[C@@]1(C)CC[C@]2(C)CC[C@]3(C)C(=CC(=O)[C@@H]4[C@@]5(C)CC[C@H](OP(=O)(O)OC6=C(O)[C@@H]([C@@H](O)CO)OC6=O)C(C)(C)[C@@H]5CC[C@]43C)[C@@H]2C1 [(1), Methyl 3-(L-ascorbyl-2-phosphoryl)-glycyrrhetinate]",95.3,87.6,36.36,37.84
"CCOC(=O)[C@@]1(C)CC[C@]2(C)CC[C@]3(C)C(=CC(=O)[C@@H]4[C@@]5(C)CC[C@H](OP(=O)(O)OC6=C(O)[C@@H]([C@@H](O)CO)OC6=O)C(C)(C)[C@@H]5CC[C@]43C)[C@@H]2C1 [(2), Ethyl 3-(L-ascorbyl-2-phosphoryl)-glycyrrhetinate]",95.4,44.7,18.84,28.72
"CCCCCCOC(=O)[C@@]1(C)CC[C@]2(C)CC[C@]3(C)C(=CC(=O)[C@@H]4[C@@]5(C)CC[C@H](OP(=O)(O)OC6=C(O)[C@@H]([C@@H](O)CO)OC6=O)C(C)(C)[C@@H]5CC[C@]43C)[C@@H]2C1 [(3), Hexyl 3-(L-ascorbyl-2-phosphoryl)-glycyrrhetinate potassium]",94.8,82.5,22.50,22.07
"CCCCCCCCCCCCOC(=O)[C@@]1(C)CC[C@]2(C)CC[C@]3(C)C(=CC(=O)[C@@H]4[C@@]5(C)CC[C@H](OP(=O)(O)OC6=C(O)[C@@H]([C@@H](O)CO)OC6=O)C(C)(C)[C@@H]5CC[C@]43C)[C@@H]2C1 [(4), Lauryl 3-(L-ascorbyl-2-phosphoryl)-glycyrrhetinate potassium]",,,49.03,50.57
"CCCCCCCCCCCCCCCCCCOC(=O)[C@@]1(C)CC[C@]2(C)CC[C@]3(C)C(=CC(=O)[C@@H]4[C@@]5(C)CC[C@H](OP(=O)(O)OC6=C(O)[C@@H]([C@@H](O)CO)OC6=O)C(C)(C)[C@@H]5CC[C@]43C)[C@@H]2C1 [(5), Stearyl 3-(L-ascorbyl-2-phosphoryl)-glycyrrhetinate potassium]",,,31.02,34.42
"CC1(C)[C@@H](O)CC[C@]2(C)[C@H]3C(=O)C=C4[C@@H]5C[C@@](C)(C(=O)O)CC[C@]5(C)CC[C@@]4(C)[C@]3(C)CC[C@@H]12 [(6), Glycyrrhetic acid]",,,16.28,25.37
